Experimental data as given in patent US11919918B2, “P2X3 andor P2X2/3 receptor antagonist, pharmaceutical composition comprising same, and use thereof” (BEIJING TIDE PHARMACEUTICAL CO., LTD., priority 2017, dated 2024).

Columns and labels:
human P2X2/3 receptor = human P2X2/3 receptor (Homo sapiens (Human), UniProt P56373+Q9UBL9); assay: Inhibitory activity on human P2X2/3 receptor (calcium 6 dye FLIPR assay, agonist α,β-MeATP); type: cell-based; settings: HEK293-P2X2/3 stably expressing cell line, FLIPR Tetra
Sequence of human P2X2/3 receptor (Q9UBL9 whole entry): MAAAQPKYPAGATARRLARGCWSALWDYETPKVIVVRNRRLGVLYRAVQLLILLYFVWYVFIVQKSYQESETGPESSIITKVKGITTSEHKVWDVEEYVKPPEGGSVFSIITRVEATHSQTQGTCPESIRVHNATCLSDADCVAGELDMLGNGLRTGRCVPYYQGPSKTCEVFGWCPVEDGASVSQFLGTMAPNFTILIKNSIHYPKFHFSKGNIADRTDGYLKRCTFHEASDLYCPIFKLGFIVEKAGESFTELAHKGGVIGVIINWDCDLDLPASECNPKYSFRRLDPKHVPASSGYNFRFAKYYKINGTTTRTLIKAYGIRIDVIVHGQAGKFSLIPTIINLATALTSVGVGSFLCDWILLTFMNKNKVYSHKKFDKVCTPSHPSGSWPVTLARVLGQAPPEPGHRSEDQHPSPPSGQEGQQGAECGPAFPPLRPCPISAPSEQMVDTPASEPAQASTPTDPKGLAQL
Sequence of human P2X2/3 receptor (P56373 whole entry): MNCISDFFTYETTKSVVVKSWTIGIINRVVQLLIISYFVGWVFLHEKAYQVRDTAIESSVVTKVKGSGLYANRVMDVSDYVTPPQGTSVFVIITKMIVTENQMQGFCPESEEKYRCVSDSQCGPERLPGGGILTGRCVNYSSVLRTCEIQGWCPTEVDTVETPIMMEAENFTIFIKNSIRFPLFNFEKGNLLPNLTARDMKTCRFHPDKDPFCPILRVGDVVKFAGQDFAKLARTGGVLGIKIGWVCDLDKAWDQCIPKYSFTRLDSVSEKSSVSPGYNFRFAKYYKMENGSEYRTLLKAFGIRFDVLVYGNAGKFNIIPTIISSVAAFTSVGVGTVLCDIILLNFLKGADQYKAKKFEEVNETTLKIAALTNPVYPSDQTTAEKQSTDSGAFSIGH
Experimental: (§1) Biological Assay: Determination of the Inhibitory Activity of the Compounds on Human P2X3 and P2X2/3 Receptors
(§2) Cells were seeded into a poly-D-lysine-coated 384-well cell culture plate (Corning) at a density of 11,000 cells/well/25 μL of cell inoculation medium, and were cultured in a cell incubator overnight. On the day of the test, the calcium 6 dye was diluted to a 2× concentration with a assay buffer, 25 μL of the 2× calcium 6 dye was added to the 384-well cell culture plate, which was incubated at 37° C. for 2 hours, and then placed at room temperature for further use. The test compound and the agonist, α,β-MeATP were diluted to a 7× concentration with the assay buffer, 10 μL of the 7× test compound was added to the 384-well cell culture plate, which was incubated at room temperature for 15 minutes, and 10 μL of the 7× α,β-MeATP was transferred into the 384-well cell culture plate. The data were measured and analyzed using FLIPR Tetra, and the half inhibitory concentration (IC50) of the test compound on P2X3 and P2X2/3 receptors was calculated with the GraphPad Prism four-parameter equation.
(§3) Cell lines: human embryonic kidney cells HEK293-P2X3 and HEK293-P2X2/3 stably expressing cell lines;
(§4) Complete cell culture medium: DMEM High Glucose (Life Technology), which contained 10% fetal bovine serum, 4 mM GlutaMAX, 1% penicillin-streptomycin, and 350 μg/mL G418;
(§5) Cell inoculation medium: DMEM High Glucose (Life Technology), which contained 2% fetal bovine serum, and 4 mM GlutaMAX;
(§6) Cell culture conditions: 37° C., 5% CO2;
(§7) Assay buffer: HBSS (containing calcium and magnesium ions), which contained 20 mM HEPES;
(§8) Detection equipment: FLIPR Tetra (Molecular Devices);

human P2X3 receptor = human P2X3 receptor (Homo sapiens (Human), UniProt P56373); assay: Inhibitory activity on human P2X3 receptor (calcium 6 dye FLIPR assay, agonist α,β-MeATP); type: cell-based; settings: HEK293-P2X3 stably expressing cell line, FLIPR Tetra
Sequence of human P2X3 receptor (P56373 whole entry): as above
Experimental: as §1, §2, §3, §4, §5, §6, §7, §8

| IC50 (human P2X2/3 receptor) | IC50 (human P2X3 receptor) | Compound |
| --- | --- | --- |
| 129 nM | 104 nM | CC(C)c1cnc(Br)cc1Oc1cnc(NC(CO)CO)nc1N [Compound C111, 2-((4-amino-5-((2-bromo-5-isopropyl-pyridin-4-yl)oxy)pyrimidin-2-yl)amino) propane-1,3-diol] |
| 487 nM | 151 nM | CCSc1cc(Oc2cnc(N)nc2N)c(C(C)C)cn1 [Compound C117, 5-((2-(ethylthio)-5-isopropylpyridin-4-yl)oxy)pyrimidine-2,4-diamine] |
| 366 nM | 142 nM | CCNc1cc(Oc2cnc(N)nc2N)c(C(C)C)cn1 [Compound C118, 5-((2-(ethylamino)-5-isopropylpyridin-4-yl)oxy) pyrimidine-2,4-diamine] |
| 505 nM | 540 nM | CC(C)c1cnc(NC2CC2)cc1Oc1cnc(N)nc1N [Compound C119, 5-((2-(cyclopropylamino)-5-isopropylpyridin-4-yl)oxy)pyrimidine-2,4-diamine] |
| 234 nM | 147 nM | CCc1cc(Sc2cnc(N)nc2N)c(C(C)C)cn1 [Compound C127, 5-((2-ethyl-5-isopropylpyridin-4-yl)thio)pyrimidine-2,4-diamine] |
| 685 nM | 391 nM | CC#Cc1cc(Oc2cnc(N)nc2N)c(C(C)C)cn1 [Compound C134, 5-((5-isopropyl-2-(prop-1-yn-1-yl)pyridin-4-yl)oxy) pyrimidine-2,4-diamine] |
| 488 nM | 303 nM | CC(C)c1cnc(C#Cc2ccccc2)cc1Oc1cnc(N)nc1N [Compound C135, 5-((5-isopropyl-2-(phenyl-ethynyl)pyridin-4-yl)oxy) pyrimidine-2,4-diamine] |
| 416 nM | 270 nM | COc1ccc(C#Cc2cc(Oc3cnc(N)nc3N)c(C(C)C)cn2)cc1 [Compound C136, 5-((5-isopropyl-2-((4-methoxyphenyl)ethynyl)pyridin-4-yl)oxy) pyrimidine-2,4-diamine] |
| 567 nM | 503 nM | CC(C)c1cnc(C#Cc2ccc(C#N)cc2)cc1Oc1cnc(N)nc1N [Compound C137] |
| 549 nM | 302 nM | CC(C)c1cnc(C#CC2CC2)cc1Oc1cnc(N)nc1N [Compound C142, 5-((2-(cyclo-propylethynyl)-5-isopropylpyrdin-4-yl)oxy) pyrimidine-2,4-diamine] |
| 623 nM | 809 nM | COc1cc(OC)c(C#Cc2cc(Oc3cnc(N)nc3N)c(C(C)C)cn2)c(OC)c1 [Compound C145, 5-((5-isopropyl-2-((2,4,6-trimethoxyphenyl)ethynyl)pyridin-4-yl)oxy)pyrimidine-2,4-diamine] |
| 113 nM | 215 nM | CC(C)c1cnc(C#Cc2ccc(N(C)C)cc2)cc1Oc1cnc(N)nc1N [Compound C148, 5-((2-((4-(dimethylamino)phenyl)ethynyl)-5-isopropylpyridin-4-yl)oxy) pyrimidine-2,4-diamine] |
| 266 nM | 130 nM | CC(C)c1cnc(C#Cc2cccc3cccnc23)cc1Oc1cnc(N)nc1N [Compound C149, 5-((5-isopropyl-2-(quinolin-8-ylethynyl)pyridin-4-yl)oxy)pyrimidine-2,4-diamine] |
| 232 nM | 211 nM | CC(C)c1cnc(C#Cc2ccccn2)cc1Oc1cnc(N)nc1N [Compound C150, 5-((5-isopropyl-2-(pyridin-2-ylethynyl)pyridin-4-yl)oxy)pyrimidine-2,4-diamine] |
| 961 nM | 590 nM | CC(C)c1cnc(C#Cc2ccncc2)cc1Oc1cnc(N)nc1N [Compound C151, 5-((5-isopropyl-2-(pyridin-4-ylethynyl)pyridin-4-yl)oxy)pyrimidine-2,4-diamine] |
| 375 nM | 211 nM | CC(C)c1cnc(NCC(F)(F)F)cc1Oc1cnc(N)nc1N [Compound C152] |
| 96 nM | 83 nM | CC(C)c1cnc(Br)cc1Oc1cnc(N)nc1NC(CO)CO [Compound C153, 2-((2-amino-5-((2-bromo-5-isopropylpyridin-4-yl)oxy)pyrimidin-4-yl)amino) propane-1,3-diol] |
| 46 nM | 72 nM | CCN(C)CCNc1nc(N)ncc1Oc1cc(Br)ncc1C(C)C [Compound C154, 5-((2-bromo-5-isopropylpyridin-4-yl)oxy)-N^4-(2-(ethyl(methyl)amino)ethyl)pyrimidine-2,4-diamine] |

| IC50 (human P2X2/3 receptor) | IC50 (human P2X3 receptor) | Compound |
| --- | --- | --- |
| 978 nM | 736 nM | CC(C)c1cnc(CN)cc1Oc1cnc(N)nc1N [Compound C157, 5-((2-(aminomethyl)-5-isopropylpyridin-4-yl)oxy)pyrimidine-2,4-diamine] |
| 429 nM | 296 nM | C=Cc1cnc(OC)cc1Oc1cnc(N)nc1N [Compound C162, 5-((2-methoxy-5-vinylpyridin-4-yl)oxy) pyrimidine-2,4-diamine] |
| 71 nM | 46 nM | C=C(C)c1cnc(OC)cc1Oc1cnc(N)nc1N [Compound C164, 5-((2-methoxy-5-(prop-1-en-2-yl)pyridin-4-yl)oxy) pyrimidine-2,4-diamine] |
| 338 nM | 163 nM | CCc1cnc(OC)cc1Oc1cnc(N)nc1N [Compound C165, 5-((5-ethyl-2-methoxy-pyridin-4-yl)oxy) pyrimidine-2,4-diamine] |
| 209 nM | 116 nM | CNc1nc(N)ncc1Oc1cc(Br)ncc1C(C)C [Compound C172, 5-((2-bromo-5-isopropylpyridin-4-yl)oxy)-N^4-methyl-pyrimidine-2,4-diamine] |
| 259 nM | 188 nM | CCNc1nc(N)ncc1Oc1cc(Br)ncc1C(C)C [Compound C173, 5-((2-bromo-5-isopropylpyridin-4-yl)oxy)-N^4-ethylpyrimidine-2,4-diamine] |
| 145 nM | 100 nM | CC(C)Nc1nc(N)ncc1Oc1cc(Br)ncc1C(C)C [Compound C174, 5-((2-bromo-5-isopropylpyridin-4-yl)oxy)-N^4-isopropyl-pyrimidine-2,4-diamine] |
| 141 nM | 108 nM | CC(C)c1cnc(Br)cc1Oc1cnc(N)nc1NCCO [Compound C175, 2-((2-amino-5-((2-bromo-5-isopropylpyridin-4-yl)oxy)pyrimidin-4-yl)amino)ethanol.] |
| 984 nM | 611 nM | COc1cc(Oc2cnc(N)nc2N)c(C)cn1 [Compound C176, 5-((2-methoxy-5-methylpyridin-4-yl)oxy) pyrimidine-2,4-diamine] |
| 43 nM | 51 nM | CC(C)c1cnc(Br)cc1Oc1cnc(N)nc1NC1CC1 [Compound C179, 5-((2-bromo-5-isopropylpyridin-4-yl)oxy)-N^4-cyclopropyl-pyrimidine-2,4-diamine] |
| 220 nM | 207 nM | CC(C)c1cnc(Br)cc1Oc1cnc(N)nc1NC1CCCCC1 [Compound C180, 5-((2-bromo-5-isopropylpyridin-4-yl)oxy)-N^4-cyclohexyl-pyrimidine-2,4-diamine] |
| 78 nM | 84 nM | CC(C)CNc1nc(N)ncc1Oc1cc(Br)ncc1C(C)C [Compound C181, 5-((2-bromo-5-isopropylpyridin-4-yl)oxy)-N^4-isobutyl-pyrimidine-2,4-diamine] |
| 446 nM | 322 nM | CC(C)CNc1nc(N)ncc1Oc1cc(C2CC2)ncc1C(C)C [Compound C194, 5-((2-cyclopropyl-5-isopropyl-pyridin-4-yl)oxy)-N^4-isobutyl-pyrimidine-2,4-diamine] |
| 652 nM | 208 nM | C=C(C)c1cnc(OC)cc1Cc1cnc(N)nc1N [Compound C196, 5-((2-methoxy-5-(prop-1-en-2-yl)pyridin-4-yl)methyl)pyrimidine-2,4-diamine] |
| 333 nM | 186 nM | CC(C)c1cnc(Br)cc1Oc1cnc(N)nc1NCCN [Compound C199, N^4-(2-aminoethyl)-5-((2-bromo-5-isopropylpyridin-4-yl)oxy)pyrimidine-2,4-diamine] |
| 498 nM | 316 nM | CC(C)c1cnc(Br)cc1Oc1cnc(N)nc1NCCOCCO [Compound C201, 2-(2-((2-amino-5-((2-bromo-5-isopropylpyridin-4-yl)oxy)pyrimidin-4-yl)amino)ethoxy) ethanol] |
| 166 nM | 103 nM | CNCCNc1nc(N)ncc1Oc1cc(Br)ncc1C(C)C [Compound C202, 5-((2-bromo-5-isopropylpyridin-4-yl)oxy)-N^4-(2-(methylamino)ethyl)pyrimidine-2,4-diamine] |
| 275 nM | 157 nM | CC(C)c1cnc(Br)cc1Oc1cnc(N)nc1NCCN1CCOCC1 [Compound C203, 5-((2-bromo-5-isopropylpyridin-4-yl)oxy)-N^4-(2-morpholinoethyl) pyrimidine-2,4-diamine] |

| Compound | IC50 (human P2X2/3 receptor) | IC50 (human P2X3 receptor) |
| --- | --- | --- |
| CC(C)c1cnc([Si](C)(C)C)cc1Oc1cnc(N)nc1N [Compound C133, 5-((5-isopropyl-2-(trimethylsilyl)pyridin-4-yl)oxy)pyrimidine-2,4-diamine] | 770 nM | 1440 nM |
